Test results as given in patent EP4608400B1, “COMPOUND FOR TREATMENT OF PAIN” (Initiator Pharma A/S, priority 2022, dated 2024).
pIC50: −log10 of the molar value.

Experiments:
CCI rats = test: Rat chronic constriction injury (CCI) model of neuropathic pain; type: in vivo, Sprague-Dawley rats; details: for paw withdrawal duration (pin prick) / weight bearing difference / paw withdrawal threshold (von Frey stimulation): 60 min prior; for paw withdrawal duration (pin prick): vehicle about 14.9 s; for weight bearing difference: vehicle about 51 %; for paw withdrawal threshold (von Frey stimulation): vehicle around 1.1 g
Procedure: All treatments were administered s.c. in a dosing volume of 2 ml/kg 60 min prior to behavioural assessment.
Adult male Sprague-Dawley rats (Harlan Scandinavia, Alleroed, Denmark) were used. They were housed in Macrolon III cages (20 x 14 x 18 cm or 20 x 40 x18 cm; in groups of 2-5 per cage according to weight) containing wood-chip bedding material (3 x 1 x 4 mm). The environment was temperature (20 ± 2°C) and humidity (55 ± 15%) controlled and consisted of a light-dark cycle of 13:11 h (lights on at 06.00 h and off at 19.00 h). Food (Altromin®) and water were available ad libitum. The rats were allowed to habituate to the housing facilities for at least one week prior to being randomly assigned to behavioural experiments. All experiments were performed according to the Ethical Guidelines of the International Association for the Study of Pain (Zimmermann, 1983) and the Danish Committee for Experiments on Animals.
All drug testing in CCI rats was performed blinded by the observer. A 2-3 day drug washout period was allowed, and the studies were conducted between 4-5 weeks after surgery. CCI rats used in this study had also been previously enrolled in similar experiments assessing the efficacy of other compound(s). Only those animals with distinct neuropathic behavior (von Frey response <4 g, pin prick response >10 s) were included in the study. Table C: Experimental groups
Chronic constriction injury procedure. A chronic constriction injury (CCI) was performed in rats (body weight 180-220 g at the time of surgery) under isoflurane anaesthesia as described previously (Bennett and Xie, 1988). The sciatic nerve was exposed at the mid-thigh level proximal to the sciatic trifurcation. Four chromic gut ligatures (4/0) (Ethicon, New Brunswick, NJ) were tied loosely around the nerve, 1-2 mm apart, such that the vascular supply was not compromised. The overlying muscle was closed in layers with 4/0 synthetic absorbable surgical suture. The skin was closed and sutured with 4/0 silk thread.
Behavioural testing of nerve-injured rats. Nerve-injured rats were routinely tested for the presence of pain-like behaviours for up to 5 weeks after surgery, according to previously described methods (Munro et al., 2008). For testing of mechanical hypersensitivity individual rats were removed from their home cage and allowed to habituate for 15 min in a 15 x 20 cm white Plexiglas testing cage, placed upon an elevated metal grid allowing access to the plantar surface of the injured hindpaw. The presence of mechanical allodynia was assessed using a series of calibrated von Frey hairs (lower limit=0.065 and upper limit=19.3 g, Stoelting Co, Wood Dale IL), which were applied to the plantar surface of the hindpaw with increasing force until an individual filament used just started to bend. The filament was applied for a period of 1-2 s and was repeated 5 times at 1-2 s intervals. The filament that induced a reflex paw withdrawal in 3 out of 5 applications was considered to represent the threshold level for a response to occur. The presence of mechanical hyperalgesia was determined by pressing the plantar surface of the hindpaw with the point of a safety pin, at an intensity sufficient to produce a reflex withdrawal response in normal unoperated animals, but at an intensity which was insufficient to penetrate the skin. A cut-off time of 15 s was applied to long withdrawals often seen for the nerve-injured paw.
Changes in hindpaw weight bearing were assessed using an incapacitance tester (Linton Instrumentation, U.K.), which incorporates a dual channel scale used to separately assess the weight distributed to each hindpaw of the rat. Normally, uninjured rats distribute their weight evenly between the two hindpaws (50:50). However, after tissue injury the rat preferentially favours the non-injured hindpaw, such that the weight bearing difference can be used as an index of spontaneous nociception. […]

[1] = target: T1, norepinephrine transporter (NET) (Homo sapiens, UniProt P23975); test: Inhibition of human transporter in stable epithelial cell lines (NET); type: cell-based; details: average of two replicates (n=2)
T1 construct: expressed in transfected cells
T1 sequence (P23975 whole entry): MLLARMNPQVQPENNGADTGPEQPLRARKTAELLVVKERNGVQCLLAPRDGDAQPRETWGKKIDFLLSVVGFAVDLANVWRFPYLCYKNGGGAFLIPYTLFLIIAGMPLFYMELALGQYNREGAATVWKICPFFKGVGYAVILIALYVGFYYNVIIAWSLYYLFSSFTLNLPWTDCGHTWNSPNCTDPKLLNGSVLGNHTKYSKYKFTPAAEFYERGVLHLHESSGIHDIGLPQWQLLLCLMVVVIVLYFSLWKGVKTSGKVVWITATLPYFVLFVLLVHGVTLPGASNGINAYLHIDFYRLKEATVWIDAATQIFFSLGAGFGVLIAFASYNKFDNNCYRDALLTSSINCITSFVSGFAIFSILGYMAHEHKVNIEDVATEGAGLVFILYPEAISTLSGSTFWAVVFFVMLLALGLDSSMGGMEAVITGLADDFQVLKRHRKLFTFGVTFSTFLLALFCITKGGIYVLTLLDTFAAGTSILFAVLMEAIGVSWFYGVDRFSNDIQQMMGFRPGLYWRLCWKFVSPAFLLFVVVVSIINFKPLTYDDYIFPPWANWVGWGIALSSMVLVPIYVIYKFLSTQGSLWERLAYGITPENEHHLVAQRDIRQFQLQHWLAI
Procedure: (§1) Compounds were tested for their ability to inhibit the reuptake of the monoamine neurotransmitters dopamine (DA), noradrenaline (NA), and serotonin (5-HT) in synaptosomes as described in WO 97/16451 (NeuroSearch A/S). In addition, the compounds were tested in human epithelial cells expressing human transporters for 5-HT (SERT), dopamine (DAT), and norepinephrine (NET).
(§2) The results are the average of two-replicates per experiment (n=2).

[2] = target: T2, 5-hydroxytryptamine transporter (5-HTT or SERT) (Homo sapiens, UniProt P31645); test: Inhibition of human transporter in stable epithelial cell lines (5-HTT); type: cell-based; details: average of two replicates (n=2)
T2 construct: expressed in transfected cells
T2 sequence (P31645 whole entry): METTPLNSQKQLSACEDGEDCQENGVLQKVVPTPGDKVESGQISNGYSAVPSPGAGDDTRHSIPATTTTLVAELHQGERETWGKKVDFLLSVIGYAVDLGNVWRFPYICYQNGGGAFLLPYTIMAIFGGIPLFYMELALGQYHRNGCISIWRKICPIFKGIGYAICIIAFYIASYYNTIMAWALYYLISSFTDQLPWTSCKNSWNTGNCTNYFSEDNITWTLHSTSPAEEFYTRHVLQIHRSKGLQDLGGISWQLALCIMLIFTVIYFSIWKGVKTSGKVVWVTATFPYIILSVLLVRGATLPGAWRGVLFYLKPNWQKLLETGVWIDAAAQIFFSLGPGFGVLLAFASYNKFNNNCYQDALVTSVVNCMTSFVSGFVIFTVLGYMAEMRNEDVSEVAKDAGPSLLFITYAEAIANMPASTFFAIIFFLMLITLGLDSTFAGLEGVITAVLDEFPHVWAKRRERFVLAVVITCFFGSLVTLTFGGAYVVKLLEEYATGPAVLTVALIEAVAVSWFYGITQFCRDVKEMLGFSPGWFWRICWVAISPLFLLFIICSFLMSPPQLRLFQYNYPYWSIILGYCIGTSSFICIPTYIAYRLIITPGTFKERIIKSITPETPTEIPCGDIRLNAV
Procedure: as §1, §2

SMILES: COc1cc2ccc(O[C@@H]3C[C@H]4CC[C@@H](C3)N4)cc2oc1=O [IP2015, exo-7-[(8-azabicyclo[3.2.1]octan-3-yl)oxy]-3-methoxy-chromen-2-one]
- paw withdrawal duration (pin prick) (CCI rats; 3 mg/kg s.c.): about 12.3 s
- weight bearing difference (CCI rats; 3 mg/kg s.c.): about 17%
- paw withdrawal threshold (von Frey stimulation) (CCI rats; 3 mg/kg s.c.): about 5.7 g
- paw withdrawal duration (pin prick) (CCI rats; 10 mg/kg s.c.): about 11.1 s
- weight bearing difference (CCI rats; 10 mg/kg s.c.): about 11%
- paw withdrawal threshold (von Frey stimulation) (CCI rats; 10 mg/kg s.c.): about 3.6 g
- CCI induced weight bearing deficits (overall effect) (CCI rats; 3, 10 mg/kg s.c., CCI rats): robust dose-dependent reversal
- hindpaw withdrawal threshold to mechanical von Frey stimulation (overall effect) (CCI rats; 3, 10 mg/kg s.c., CCI rats): small but significant increase
- behavioural observation in CCI rats (CCI rats; 10 and especially 30 mg/kg s.c.): extremely alert, and possibly displayed signs of anxiogenic behaviour
- pIC50 [1]: 7.02
- pIC50 [2]: 9.53
